From patent US8415351B2 (priority 2007, dated 2013)
pEC50, pIC50: −log10 of the molar value.

Assays:
[1] = target: T1, HCV polymerase 1A (Δ21 NS5B, H77) (Hepatitis C virus genotype 1a, UniProt P27958); assay: biochemical; conditions: IC50 1a
T1 construct: 20 to 50 nM Δ21 NS5B
Summary of the method: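 Incorporation of 1 μM ^3H-UTP, with 20 μM each of CTP and ATP on 5 nM template RNA, ran 2–4 h at room temperature. Spermine-precipitated product was filtered and scintillation-counted. IC50 came from tight-binding non-linear regression of cpm against inhibitor concentration.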

[2] = system: genotype 1b-Con1 subgenomic replicon cell line; assay: microbe, parasite or virus in culture; format: cell-based, HCV; conditions: Hepatitis C virus, read-out: EC50 1b
[3] = system: genotype 1a-H77 subgenomic replicon cell line; assay: microbe, parasite or virus in culture; format: cell-based, HCV; conditions: Hepatitis C virus, read-out: EC50 1a
[4] = target: T2, HCV polymerase 1B (Δ21 NS5B, BK) (Hepatitis C virus genotype 1b, UniProt P26663); assay: biochemical
T2 construct: 20 to 50 nM Δ21 NS5B
T2 sequence (P26663 2420-2989, stated change not applied): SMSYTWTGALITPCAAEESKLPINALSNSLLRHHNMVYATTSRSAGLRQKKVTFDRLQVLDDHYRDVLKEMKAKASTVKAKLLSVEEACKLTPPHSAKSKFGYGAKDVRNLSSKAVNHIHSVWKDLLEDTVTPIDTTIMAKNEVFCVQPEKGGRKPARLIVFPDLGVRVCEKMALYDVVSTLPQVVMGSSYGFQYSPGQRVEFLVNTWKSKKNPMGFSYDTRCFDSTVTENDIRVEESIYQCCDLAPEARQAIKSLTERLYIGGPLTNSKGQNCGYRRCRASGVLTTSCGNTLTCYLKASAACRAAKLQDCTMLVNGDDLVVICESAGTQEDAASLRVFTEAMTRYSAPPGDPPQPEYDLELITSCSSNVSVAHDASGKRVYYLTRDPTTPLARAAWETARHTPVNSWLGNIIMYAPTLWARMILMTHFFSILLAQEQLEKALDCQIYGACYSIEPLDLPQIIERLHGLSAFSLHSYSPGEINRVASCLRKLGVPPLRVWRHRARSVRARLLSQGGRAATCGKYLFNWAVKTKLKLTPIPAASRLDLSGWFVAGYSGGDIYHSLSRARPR
Summary of the method: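 Δ21 NS5B (genotype 1b, BK […]) preincubated 15 min RT with inhibitor, 2 mM MnCl2, pH 7.4, 60–125 μM GTP; started with 20 μM CTP/ATP, 1 μM 3H-UTP, 5 nM template RNA, run 2–4 h RT. Spermine-precipitated RNA filter-captured, scintillation counted; IC50 from tight-binding (Morrison) fit.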

T1 sequence (P27958 2421-2990, stated change not applied): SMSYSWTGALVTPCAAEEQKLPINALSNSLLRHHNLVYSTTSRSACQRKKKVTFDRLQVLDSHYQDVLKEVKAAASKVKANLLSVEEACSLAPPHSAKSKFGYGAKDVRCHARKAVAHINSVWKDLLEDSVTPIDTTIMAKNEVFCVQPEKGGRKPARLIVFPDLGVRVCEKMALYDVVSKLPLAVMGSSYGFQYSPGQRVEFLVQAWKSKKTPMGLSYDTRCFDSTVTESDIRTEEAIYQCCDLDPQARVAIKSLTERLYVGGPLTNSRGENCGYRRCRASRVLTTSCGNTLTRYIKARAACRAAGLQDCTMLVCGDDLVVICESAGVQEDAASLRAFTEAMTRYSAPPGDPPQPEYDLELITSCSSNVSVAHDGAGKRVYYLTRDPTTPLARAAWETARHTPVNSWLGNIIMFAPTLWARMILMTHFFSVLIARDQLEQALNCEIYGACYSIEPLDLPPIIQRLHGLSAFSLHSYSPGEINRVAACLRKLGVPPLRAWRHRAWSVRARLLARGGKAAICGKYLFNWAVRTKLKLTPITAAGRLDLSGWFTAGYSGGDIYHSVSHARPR

Row | Structure (SMILES) | pIC50 [1] | pEC50 [2] | pEC50 [3] | pIC50 [4]
1 | CCCC(=O)OCN(c1ccc(NC(=O)c2cc(N3CCC(=O)NC3=O)cc(C(C)(C)C)c2OC)cc1)S(C)(=O)=O [IA-L3-1.123, (N-(4-(3-tert-butyl-5-(2,4-dioxotetrahydropyrimidin-1(2H)-yl)-2-methoxybenzamido)phenyl)methylsulfonamido)methyl butyrate] | < 6.00 | 7.00 to 8.00 | 6.00 to 7.00 | < 6.00
2 | COc1c(-c2ccc3c(CN(C)S(C)(=O)=O)csc3c2)cc(-n2ccc(=O)[nH]c2=O)cc1C(C)(C)C [IB-L0-2.21, N-((6-(3-tert-butyl-5-(2,4-dioxo-3,4-dihydropyrimidin-1(2H)-yl)-2-methoxyphenyl)benzo[b]thiophen-3-yl)methyl)-N-methylmethanesulfonamide] | 7.00 to 8.00 | 7.00 to 8.00 | 6.00 to 7.00 | 7.00 to 8.00
3 | COc1c(C#Cc2ccc(NS(C)(=O)=O)cn2)cc(N2CCC(=O)NC2=O)cc1C(C)(C)C [IA-L2-1.25, N-(6-((3-tert-butyl-5-(2,4-dioxotetrahydropyrimidin-1(2H)-yl)-2-methoxyphenyl)ethynyl)pyridin-3-yl)methanesulfonamide] | > 8.00 | 7.00 to 8.00 | 6.00 to 7.00 | 7.00 to 8.00
4 | COc1c(-c2cccc(/C=N/NS(C)(=O)=O)c2)cc(-n2ccc(=O)[nH]c2=O)cc1C(C)(C)C [IB-L0-1.10, (E)-N′-((3′-tert-butyl-5′-(2,4-dioxo-3,4-dihydropyrimidin-1(2H)-yl)-2′-methoxybiphenyl-3-yl)methylene)methanesulfonohydrazide] | 6.00 to 7.00 | < 6.00 | < 6.00 | 6.00 to 7.00
5 | COc1c(C#Cc2ncc(NS(C)(=O)=O)cc2C)cc(N2CCC(=O)NC2=O)cc1C(C)(C)C [IA-L2-1.24, N-(6-((3-tert-butyl-5-(2,4-dioxotetrahydropyrimidin-1(2H)-yl)-2-methoxyphenyl)ethynyl)-5-methylpyridin-3-yl)methanesulfonamide] | > 8.00 | 7.00 to 8.00 | 6.00 to 7.00 | 7.00 to 8.00
6 | COc1cc(NS(C)(=O)=O)ccc1C(=O)Nc1cc(-n2ccc(=O)[nH]c2=O)cc(C(C)(C)C)c1OC [IB-L4-1.1, N-(3-tert-butyl-5-(2,4-dioxo-3,4-dihydropyrimidin-1(2H)-yl)-2-methoxyphenyl)-2-methoxy-4-(methylsulfonamido)benzamide] | > 8.00 | 7.00 to 8.00 | 6.00 to 7.00 | 7.00 to 8.00
7 | COc1c(-c2cccc(/C(C)=N\NS(C)(=O)=O)c2)cc(N2CCC(=O)NC2=O)cc1C(C)(C)C [IA-L0-1.8, (Z)—N′-(1-(3′-tert-butyl-5′-(2,4-dioxotetrahydropyrimidin-1(2H)-yl)-2′-methoxybiphenyl-3-yl)ethylidene)methanesulfonohydrazide] | 6.00 to 7.00 | < 6.00 | < 6.00 | 6.00 to 7.00
8 | CNS(=O)(=O)Cc1ccc(NC(=O)c2cc(N3CCC(=O)NC3=O)cc(C(C)(C)C)c2O)cc1 [IA-L3-1.16, 3-tert-butyl-5-(2,4-dioxotetrahydropyrimidin-1(2H)-yl)-2-hydroxy-N-(4-(N-methylsulfamoylmethyl)phenyl)benzamide] | < 6.00 | < 6.00 | < 6.00 | 7.00 to 8.00
9 | COc1c(C#Cc2cc(F)c(NS(C)(=O)=O)cc2C(F)(F)F)cc(N2CCC(=O)NC2=O)cc1C(C)(C)C [IA-L2-1.22, N-(4-((3-tert-butyl-5-(2,4-dioxotetrahydropyrimidin-1(2H)-yl)-2-methoxyphenyl)ethynyl)-2-fluoro-5-(trifluoromethyl)phenyl)methanesulfonamide] | 7.00 to 8.00 | 7.00 to 8.00 | 6.00 to 7.00 | 7.00 to 8.00
10 | COc1c(-c2ccc3cc(CNS(C)(=O)=O)sc3c2)cc(-n2ccc(=O)[nH]c2=O)cc1C(C)(C)C [IB-L0-2.40, N-((6-(3-tert-butyl-5-(2,4-dioxo-3,4-dihydropyrimidin-1(2H)-yl)-2-methoxyphenyl)benzo[b]thiophen-2-yl)methyl)methanesulfonamide] | 6.00 to 7.00 | 6.00 to 7.00 | < 6.00 | 6.00 to 7.00
11 | COc1c(-c2ccc3c(CNS(C)(=O)=O)csc3c2)cc(-n2ccc(=O)[nH]c2=O)cc1C(C)(C)C [IB-L0-2.11, N-((6-(3-tert-butyl-5-(2,4-dioxo-3,4-dihydropyrimidin-1(2H)-yl)-2-methoxyphenyl)benzo[b]thiophen-3-yl)methyl)methanesulfonamide] | > 8.00 | > 8.00 | 7.00 to 8.00 | > 8.00
12 | COc1c(C(=O)Nc2ccc3c(c2)CCC(=O)N3)cc(N2CCC(=O)NC2=O)cc1C(C)(C)C [IA-L3-2.4, 3-tert-butyl-5-(2,4-dioxotetrahydropyrimidin-1(2H)-yl)-2-methoxy-N-(2-oxo-1,2,3,4-tetra hydroquinolin-6-yl)benzamide] | < 6.00 | < 6.00 | < 6.00 | < 6.00
13 | COc1c(C(=O)Nc2ccc(OS(C)(=O)=O)cc2)cc(N2CCC(=O)NC2=O)cc1C(C)(C)C [IA-L3-1.41, 4-(3-tert-butyl-5-(2,4-dioxotetrahydropyrimidin-1(2H)-yl)-2-methoxybenzamido)phenyl methanesulfonate] | 6.00 to 7.00 | 6.00 to 7.00 | < 6.00 | < 6.00
14 | CC(C)CS(=O)(=O)Nc1ccc(NC(=O)c2cc(N3CCC(=O)NC3=O)cc(C(C)(C)C)c2O)cc1 [IA-L3-1.7, 3-tert-butyl-5-(2,4-dioxotetrahydropyrimidin-1(2H)-yl)-2-hydroxy-N-(4-(2-methylpropylsulfonamido)phenyl)benzamide] | 6.00 to 7.00 | < 6.00 | < 6.00 | 7.00 to 8.00
15 | COc1c(-c2ccc3c(c2)CCC3NS(C)(=O)=O)cc(-n2ccc(=O)[nH]c2=O)cc1C(C)(C)C (centres unmarked) [IB-L0-2.44, N-(5-(3-tert-butyl-5-(2,4-dioxo-3,4-dihydropyrimidin-1(2H)-yl)-2-methoxyphenyl)-2,3-dihydro-1H-inden-1-yl)methanesulfonamide] | 6.00 to 7.00 | < 6.00 | < 6.00 | 6.00 to 7.00
16 | CC(C)(C)c1cc(-c2ccc3c(c2)CC/C3=N\NS(C)(=O)=O)cc(-n2ccc(=O)[nH]c2=O)c1 [IB-L0-2.7, (E)-N′-(5-(3-tert-butyl-5-(2,4-dioxo-3,4-dihydropyrimidin-1(2H)-yl)phenyl)-2,3-dihydro-1H-inden-1-ylidene)methanesulfonohydrazide] | 7.00 to 8.00 | 7.00 to 8.00 | 6.00 to 7.00 | 7.00 to 8.00
17 | COc1c(-c2ccc3c(c2)CC=C3CNS(C)(=O)=O)cc(-n2ccc(=O)[nH]c2=O)cc1-c1ccco1 [IB-L0-2.65, N-((6-(5-(2,4-dioxo-3,4-dihydropyrimidin-1(2H)-yl)-3-(furan-2-yl)-2-methoxyphenyl)-1H-inden-3-yl)methyl)methanesulfonamide] | 7.00 to 8.00 | 7.00 to 8.00 | 6.00 to 7.00 | > 8.00
18 | COc1c(C(=O)Nc2ccc(O)cc2)cc(N2CCC(=O)NC2=O)cc1C(C)(C)C [IA-L3-1.33, 3-tert-butyl-5-(2,4-dioxotetrahydropyrimidin-1(2H)-yl)-N-(4-hydroxyphenyl)-2-methoxybenzamide] | < 6.00 | < 6.00 | < 6.00 | 6.00 to 7.00
19 | CC(C)(C)c1cc(N2CCC(=O)NC2=O)cc(C(=O)Nc2ccc3ncccc3c2)c1O [IA-L3-2.1, 3-tert-butyl-5-(2,4-dioxotetrahydropyrimidin-1(2H)-yl)-2-hydroxy-N-(quinolin-6-yl)benzamide] | < 6.00 | < 6.00 | < 6.00 | 6.00 to 7.00
20 | COc1c(C(=O)Nc2ccc(N)cc2)cc(N2CCC(=O)NC2=O)cc1C(C)(C)C [IA-L3-1.107, N-(4-aminophenyl)-3-tert-butyl-5-(2,4-dioxotetrahydropyrimidin-1(2H)-yl)-2-methoxy benzamide] | < 6.00 | < 6.00 | < 6.00 | < 6.00
21 | CN(c1ccc(NC(=O)c2cc(N3CCC(=O)NC3=O)cc(C(C)(C)C)c2O)cc1)S(C)(=O)=O [IA-L3-1.4, 3-tert-butyl-5-(2,4-dioxotetrahydropyrimidin-1(2H)-yl)-2-hydroxy-N-(4-(N-methylmethylsulfonamido)phenyl)benzamide] | 6.00 to 7.00 | < 6.00 | < 6.00 | 7.00 to 8.00
22 | COc1c(C(=O)Nc2cc(CN(C(=O)OC(C)(C)C)S(C)(=O)=O)cs2)cc(N2CCC(=O)NC2=O)cc1C(C)(C)C [IA-L3-1.96, tert-butyl (5-(3-tert-butyl-5-(2,4-dioxotetrahydropyrimidin-1(2H)-yl)-2-methoxybenzamido)thiophen-3-yl)methyl(methylsulfonyl)carbamate] | 6.00 to 7.00 | < 6.00 | 6.00 to 7.00 | < 6.00
23 | CC(C)(C)OC(=O)N(Cc1csc(NC(=O)c2cc(N3CCC(=O)NC3=O)cc(C(C)(C)C)c2O)c1)S(C)(=O)=O [IA-L3-1.98, tert-butyl (5-(3-tert-butyl-5-(2,4-dioxotetrahydropyrimidin-1(2H)-yl)-2-hydroxybenzamido)thiophen-3-yl)methyl(methylsulfonyl)carbamate] | < 6.00 | 6.00 to 7.00 | < 6.00 | 6.00 to 7.00
